Counter-ions that a name gives are not always drawn.
How the values were obtained:
[1] = test system: 18f-NLuc reporter virus; assay: microbe, parasite or virus in culture; format: cell-based, Hepatitis A virus; conditions: for activity at 10 µM: Hepatovirus A, Huh-7.5.1, 72 h, read-out: Normalized HAV production
[2] = test system: Huh-7.5.1 cells; assay: Cell viability in the chemical screen (Cell TiterGlo); conditions: 10 µM compound, 72 h

Compound: C[C@@]1(F)[C@H](O)[C@@H](CO)O[C@H]1n1ccc(=O)[nH]c1=O [PSI6206]
- Normalized HAV production [1]: 1.52
- Viability Percent DMSO [2]: 104 Percent DMSO

Compound: C[C@@H]1O[C@@H](O[C@H]2[C@H](Oc3cc(O)c4c(c3)O[C@H](c3ccc(O)cc3)CC4=O)O[C@H](CO)[C@@H](O)[C@@H]2O)[C@H](O)[C@H](O)[C@H]1O [Naringin]
- activity at 10 µM [1]: 124%
- Viability Percent DMSO [2]: 115 Percent DMSO

Compound: CC(C)CN(C[C@@H](O)[C@H](Cc1ccccc1)NC(=O)O[C@H]1CCOC1)S(=O)(=O)c1ccc(N)cc1 [Amprenavir]
- activity at 10 µM [1]: 91%
- Viability Percent DMSO [2]: 121 Percent DMSO

Compound: COC[C@H]1C[C@@H](c2ncc(-c3ccc4c(c3)COc3cc5c(ccc6nc([C@@H]7CC[C@H](C)N7C(=O)[C@@H](NC(=O)OC)C(C)C)[nH]c65)cc3-4)[nH]2)N(C(=O)[C@H](NC(=O)OC)c2ccccc2)C1 [Velpatasvir]
- activity at 10 µM [1]: 52%
- Viability Percent DMSO [2]: 121 Percent DMSO

Compound: COC(=O)N[C@H](C(=O)N[C@@H](Cc1ccccc1)[C@@H](O)CN(Cc1ccc(-c2ccccn2)cc1)NC(=O)[C@@H](NC(=O)OC)C(C)(C)C)C(C)(C)C [Atazanavir]
- activity at 10 µM [1]: 96%
- Viability Percent DMSO [2]: 130 Percent DMSO

Compound: Cc1cn([C@@H]2C[C@@H](O)[C@H](CO)O2)c(=O)[nH]c1=O [Telbivudine]
- activity at 10 µM [1]: 156%
- Viability Percent DMSO [2]: 108 Percent DMSO

Compound: O=C1C[C@@H](c2ccc(O)cc2)Oc2cc(O)cc(O)c21 [Naringenin]
- activity at 10 µM [1]: 86%
- Viability Percent DMSO [2]: 112 Percent DMSO

Compound: COC(=O)C1=C(C)NC(c2ncc(F)cc2F)=NC1c1ccc(F)cc1Cl (racemic) [Bay 41-4109 racemate]
- Normalized HAV production [1]: 0.84

Compound: Nc1ccn([C@@H]2CS[C@H](CO)O2)c(=O)n1 [Lamivudine]
- activity at 10 µM [1]: 86%
- Viability Percent DMSO [2]: 120 Percent DMSO

Compound: C[C@@H]1CCO[C@H]2Cn3cc(C(=O)NCc4ccc(F)cc4F)c(=O)c(O)c3C(=O)N12 [Dolutegravir]
- activity at 10 µM [1]: 49%
- Viability Percent DMSO [2]: 159 Percent DMSO

Compound: Darunavir Ethanolate
- Normalized HAV production [1]: 1.54
- Viability Percent DMSO [2]: 111 Percent DMSO

Compound: Cc1ccnc2c1NC(=O)c1cccnc1N2C1CC1 [Nevirapine]
- activity at 10 µM [1]: 104%
- Viability Percent DMSO [2]: 100 Percent DMSO

Compound: CC1(C)[C@@H](O[C@H]2O[C@H](C(=O)O)[C@@H](O)[C@H](O)[C@H]2O[C@@H]2O[C@H](C(=O)O)[C@@H](O)[C@H](O)[C@H]2O)CC[C@]2(C)[C@H]3C(=O)C=C4[C@@H]5C[C@@](C)(C(=O)O)CC[C@]5(C)CC[C@@]4(C)[C@]3(C)CC[C@@H]12 [Glycyrrhizin]
- activity at 10 µM [1]: 79%
- Viability Percent DMSO [2]: 124 Percent DMSO

Compound: CC(=O)OCC(CCn1cnc2cnc(N)nc21)COC(C)=O [Famciclovir]
- activity at 10 µM [1]: 115%
- Viability Percent DMSO [2]: 123 Percent DMSO

Compound: CC(C)c1nc(CN(C)C(=O)N[C@@H](CCN2CCOCC2)C(=O)N[C@H](CC[C@H](Cc2ccccc2)NC(=O)OCc2cncs2)Cc2ccccc2)cs1 [Cobicistat]
- activity at 10 µM [1]: 34%
- Viability Percent DMSO [2]: 176 Percent DMSO

Compound: CC(C)OC(=O)C1=CN(C(=O)c2ccc(F)c(F)c2)CC(C)(C)c2c1[nH]c1ccccc21 [Turofexorate Isopropyl]
- activity at 10 µM [1]: 100%
- Viability Percent DMSO [2]: 161 Percent DMSO

Compound: CCOC(=O)c1c(CSc2ccccc2)n(C)c2cc(Br)c(O)c(CN(C)C)c12.Cl [Arbidol hydrochloride]
- Normalized HAV production [1]: 0.78
- Viability Percent DMSO [2]: 105 Percent DMSO

Compound: Nc1nc(NC2CC2)c2ncn([C@H]3C=C[C@@H](CO)C3)c2n1 [Abacavir]
- activity at 10 µM [1]: 87%
- Viability Percent DMSO [2]: 119 Percent DMSO

Compound: CC(C)(C)C#Cc1cc(N(C(=O)[C@H]2CC[C@H](C)CC2)[C@H]2CC[C@H](O)CC2)c(C(=O)O)s1 [Lomibuvir]
- activity at 10 µM [1]: 97%
- Viability Percent DMSO [2]: 125 Percent DMSO

Compound: CO/N=C(\C(=O)N[C@@H]1C(=O)N2C(C(=O)O)=C(COC(C)=O)CS[C@H]12)c1csc(N)n1 [Cefotaxime sodium]
- activity at 10 µM [1]: 80%
- Viability Percent DMSO [2]: 113 Percent DMSO

Compound: Nc1nc2c(ncn2CCC(CO)CO)c(=O)[nH]1 [Penciclovir]
- activity at 10 µM [1]: 111%
- Viability Percent DMSO [2]: 96 Percent DMSO

Compound: CC(C)[C@H](N)C(=O)OCC(CO)OCn1cnc2c(=O)nc(N)[nH]c21 (stereo partly drawn) [Valganciclovir hydrochloride]
- activity at 10 µM [1]: 90%
- Viability Percent DMSO [2]: 110 Percent DMSO

Compound: Cc1cc(O)cc(C)c1Cl [Chloroxylenol]
- activity at 10 µM [1]: 90%
- Viability Percent DMSO [2]: 108 Percent DMSO

Compound: O=c1[nH]c(=O)n([C@H]2C[C@H](O)[C@@H](CO)O2)cc1C(F)(F)F [Trifluridine]
- activity at 10 µM [1]: 107%
- Viability Percent DMSO [2]: 96 Percent DMSO

Compound: CN(C)[C@@H]1C(O)=C(C(N)=O)C(=O)[C@@]2(O)C(O)=C3C(=O)c4c(O)cccc4[C@@](C)(O)[C@H]3[C@H](O)[C@@H]12 [Oxytetracycline]
- activity at 10 µM [1]: 87%
- Viability Percent DMSO [2]: 103 Percent DMSO

Compound: O=C1c2cccc(O)c2C(=O)c2c(O)cc(CO)cc21 [Aloe-emodin]
- activity at 10 µM [1]: 118%
- Viability Percent DMSO [2]: 90 Percent DMSO

Compound: O=C(O)[C@H]1O[C@@H](Oc2cc3oc(-c4ccccc4)cc(=O)c3c(O)c2O)[C@H](O)[C@@H](O)[C@@H]1O [Baicalin]
- activity at 10 µM [1]: 81%
- Viability Percent DMSO [2]: 114 Percent DMSO

Compound: C[C@H](Cn1cnc2c(N)ncnc21)OCP(=O)(O)O [Tenofovir]
- activity at 10 µM [1]: 128%
- Viability Percent DMSO [2]: 118 Percent DMSO

Compound: CC1(C)[C@@H](O[C@H]2O[C@H](C(=O)O)[C@@H](O)[C@H](O)[C@H]2O[C@@H]2O[C@H](C(=O)O)[C@@H](O)[C@H](O)[C@H]2O)CC[C@]2(C)[C@H]3C(=O)C=C4[C@@H]5C[C@@](C)(C(=O)O)CC[C@]5(C)CC[C@@]4(C)[C@]3(C)CC[C@@H]12.N.N [Diammonium Glycyrrhizinate]
- Normalized HAV production [1]: 0.78
- Viability Percent DMSO [2]: 116 Percent DMSO

Compound: Maraviroc
- Normalized HAV production [1]: 0.94

Compound: Clc1ccc(COC(Cn2ccnc2)c2ccc(Cl)cc2Cl)cc1 (stereo not drawn) [Econazole]
- activity at 10 µM [1]: 100%

Compound: O=C[C@H](O)[C@H]1OC(=O)[C@@H](O)[C@H]1O [Dicurone]
- Normalized HAV production [1]: 1.16

Compound: CC(C)c1nc(CN(C)C(=O)N[C@H](C(=O)N[C@@H](Cc2ccccc2)C[C@H](O)[C@H](Cc2ccccc2)NC(=O)OCc2cncs2)C(C)C)cs1 [Ritonavir]
- activity at 10 µM [1]: 34%

Compound: Clc1ccc(COC(Cn2ccnc2)c2ccc(Cl)cc2Cl)c(Cl)c1 (stereo not drawn) [Miconazole]
- activity at 10 µM [1]: 74%

Compound: Clc1ccccc1C(c1ccccc1)(c1ccccc1)n1ccnc1 [Clotrimazole]
- activity at 10 µM [1]: 85%
